Conditions: 313.14 K, Liquid, Vibrating tube method

CCCCCCCCCC [decane]
Conditions	mass density [kg/m3]
24173 kPa	733.5
24196 kPa	733.5
24223 kPa	733.4
24245 kPa	733.5
24268 kPa	733.6
24304 kPa	733.6
24331 kPa	733.6
24351 kPa	733.6
24391 kPa	733.7
24420 kPa	733.7
24455 kPa	733.7
24491 kPa	733.7
24527 kPa	733.7
24559 kPa	733.8
24591 kPa	733.7
24632 kPa	733.9
24668 kPa	733.9
24704 kPa	733.9
24729 kPa	733.9
24758 kPa	734
24787 kPa	733.9
24824 kPa	733.9
24854 kPa	734
24889 kPa	734
24918 kPa	734.1
24952 kPa	734
24983 kPa	734
25018 kPa	734.1
25049 kPa	734.2
25080 kPa	734.1
25107 kPa	734.2
25129 kPa	734.2
25161 kPa	734.2
25188 kPa	734.2
25215 kPa	734.2
25255 kPa	734.3
25287 kPa	734.3
25323 kPa	734.3
25351 kPa	734.4
25387 kPa	734.3
25415 kPa	734.3
25452 kPa	734.5
25489 kPa	734.4
25558 kPa	734.6
25618 kPa	734.5
25650 kPa	734.6
25684 kPa	734.6
25712 kPa	734.5
25750 kPa	734.5
25778 kPa	734.6
25811 kPa	734.6
25840 kPa	734.7
25878 kPa	734.8
27095 kPa	735.5
27127 kPa	735.5
27155 kPa	735.6
27178 kPa	735.5
27206 kPa	735.6
27239 kPa	735.7
27267 kPa	735.7
27295 kPa	735.5
27328 kPa	735.7
27370 kPa	735.7
27403 kPa	735.7
27432 kPa	735.8
27465 kPa	735.8
27498 kPa	735.7
27527 kPa	735.8
27560 kPa	735.9
27599 kPa	735.8
27627 kPa	735.8
27661 kPa	735.9
27685 kPa	735.8
27728 kPa	735.9
27767 kPa	736
27811 kPa	736
27850 kPa	735.9
27898 kPa	736.1
27932 kPa	736.2
29093 kPa	736.8
29131 kPa	736.9
29195 kPa	737
29243 kPa	737
29286 kPa	736.9
29330 kPa	737.1
29369 kPa	737.1
29414 kPa	737
29452 kPa	737.1
29496 kPa	737.2
29524 kPa	737.1
29568 kPa	737.2
29611 kPa	737.2
29645 kPa	737.3
29684 kPa	737.2
29729 kPa	737.2
29763 kPa	737.3
29809 kPa	737.3
29845 kPa	737.3
29878 kPa	737.3
29923 kPa	737.4
29963 kPa	737.5
30003 kPa	737.5
30049 kPa	737.5
30089 kPa	737.6
30124 kPa	737.6
30171 kPa	737.5
30212 kPa	737.5
30248 kPa	737.6
30281 kPa	737.7
30319 kPa	737.6
30352 kPa	737.7
30401 kPa	737.8
30433 kPa	737.7
30466 kPa	737.8
30504 kPa	737.8
30542 kPa	737.8
30575 kPa	737.8
30614 kPa	737.9
31015 kPa	738.1
31049 kPa	738
31124 kPa	738.2
31165 kPa	738.2
31205 kPa	738.3
31251 kPa	738.3
31303 kPa	738.3
31332 kPa	738.3
31379 kPa	738.3
32818 kPa	739.4
32847 kPa	739.2
32891 kPa	739.4
32920 kPa	739.3
32965 kPa	739.4
33007 kPa	739.5
33037 kPa	739.5
33079 kPa	739.5
33103 kPa	739.6
33135 kPa	739.5
